Assay results as given in patent US5434295A (priority 1994, dated 1995).
“Also recorded” adds a separate entry of the source.

How the values were obtained:
Rat brain NMDA receptors = assay: Blockade of NMDA response in Xenopus oocytes injected with rat brain RNA; format: biochemical
From the text: Blockade of NMDA-induced voltage changes in Xenopus oocytes: Frog oocytes can be injected with genetic material from various species and organs, resulting in the expression of the various molecules encoded by this material in the oocyte. Injection of rat brain RNA provides active NMDA receptors on the ooctye surface. Application of NMDA results in changes in the electrical activity recorded from the oocytes. Various NMDA antagonists block the NMDA-induced changes in electrical activity and their potency and dose dependence in this system indicate their potency and mode of action as NMDA antagonists.
The oocyte is the most widely used system for studying the molecular, biophysical and pharmacological properties of expressed voltage- or transmitter-operated ion channels. This giant cell offers several advantages for this type of studies. It can be readily used for two-electrode voltage clamp studies, translates injected mRNA from different sources and functionally expresses the translated proteins, and it is also readily amenable for intracellular micron injections. Importantly, the recordings of neurotransmitter- or voltage-induced currents in a single oocyte are extremely stable and can performed repeatedly for 2-3 hours; this allows the performance of a full dose-response relation in single oocytes.
Rat brain NMDA receptors were expressed in Xenopus oocytes injected with total rat brain RNA. Dascal and Lotan. The conditions for injection culture and electrical recording from oocytes were as described by Dascal and Lotan (in: Methods in Molecular Biology, Longstaff and Revest, eds. Vol. 13, Chapter 13, Humana Press, N.J., 1992).
Briefly, female Xenopus were anesthetized by immersion in water containing 0.15% tricaine methanesulfonate and a small incision was made in the lower abdomen. Ovary fragments were removed into ND-96.
The oocytes were defolliculated by the collagenase treatment in order to remove the follicle cell layer. Defolliculated oocytes were injected with total rat brain RNA and incubated for 2-4 days at 22° C. in sterile NDE-96 solution. ND-96 solution contains (in mM): NaCl - 96, KCl - 2, CaCl2 - 1.8, Hepes - 5 (pH=7.4-7.6). NDE-96 contains in addition, 2.5 mM sodium pyruvate, 100 unit/ml penicillin, 100 μg/ml streptomycin. A single oocyte was placed in a 1 ml bath constantly superfused with ND-96 solution at room temperature. The cell was impaled with two microelectrodes and held at membrane potential of -60 mV using voltage clamp circuit.
RNA was extracted from the brain of 14-day old rat brain. Each oocyte was injected with 50 nl total RNA (4-8 mg/ml in water, stored at -80° C. in […] aliquots).
NMDA receptors were activated by application of NMDA with glycine in Mg-free ND-96 solution. It was shown previously and also observed in this study that the entry of calcium ions through the NMDA receptor-channel evokes a Ca-dependent Cl^- current which appeared as an early inward current peak preceding and overlapping the actual NMDA response and hindering a quantitative pharmacological study of NMDA antagonists. Experimental conditions were therefore worked out aimed at eliminating the Cl^- current. The best protocol employed the use of Ca-free, Ba-containing solution, avoiding repetitive application of antagonists, as well as other conditions including optimal perfusion rate and optimal intervals between repetitive NMDA applications.
Several NMDA receptor blockers were tested. These compounds have […] and have to be dissolved in 100% dimethyl sulfoxide (DMSO) and diluted for use in ND-96 that contained 1% DMSO. Therefore, the effect of 1% DMSO on the response to 10^-4 M NMDA and 5×10^-6 M glycine was examined. DMSO had no effect on NMDA response in three different cells.
Eight putative NMDA antagonists of the HU group, including 270, 271 and 259 were tested for anti-NMDA activity at a glutamate receptor. […]

[1] = test system: pyramidal cells in CA1 subfield of the hippocampus; assay: Histopathological evaluation of hippocampus in gerbils after bilateral common carotid artery occlusion; format: in vivo, Mongolian gerbils; settings: drug 30 min after occlusion
From the text: Inhibition of ischemic neuronal damage in gerbils: Temporary blockage of the blood supply to the gerbil brain by surgical ligation of the two major arteries (common carotids) results in transient global forebrain ischemia. Temporary global ischemia produces a delayed, selective degeneration of neurons in the hippocampus, a brain structure essential for memory formation. The ability of various compounds to prevent hippocampal cell loss and the attendant memory deficits is considered a measure of their potency as neuroprotectants in ischemic conditions.
Mongolian gerbils (male), 65-70 gr (Tumblebrook Farm) underwent the ischemic procedure while anaesthetised with equithisine.
Common carotid arteries (CCA) were isolated and 3-0 silk suture material was positioned loosely round them. The tips of each loop were tied together, and the suture material was buried beside the trachea. The ventral neck incision was then sutured. In the following day, they were lightly anaesthetised with ether, the neck skin wounds were opened and both CCA were occluded for 10 minutes using small artery clips. During the ischemia and until the animals recovered (regaining righting reflexes), they were maintained in a warm state (36.5°-37.5° C. rectal temperature). […]
Histopathological evaluation. […] Then, 5 μm sections were cut from the area of the dorsal hippocampus, stained with H&E and cresyl violet, and evaluated according to the following system. The number of viable pyramidal cells in the medial, middle and lateral CA1 subfield of the hippocampus were counted under 400X magnification, along 0.4 mm in both sides. […]
Statistics. Neuroclinical appearance was analyzed using Wilcoxon Rank Sum Test. The histopathological evaluation was analyzed using One-Way ANOVA followed by Duncan's Test.
Gerbils were scored for their clinical symptoms following the ischemic insult according to the system described by Rudolphi et al. (Table 4). Each animal was evaluated daily over 4 consecutive days (Day 1 being the day of CCA occlusion). […]

hypobaric anoxia in mice = assay: Survival of mice exposed to hypobaric anoxia; format: in vivo; settings: 200 mmHg, 5 mg/kg i.p. in MCT oil, 45 min before
Experimental: Protection against hypobaric anoxia in mice: Exposure of mice to a hypobaric (200 mmHg) atmosphere reduces the amount of oxygen available to the animals and results in death within 1-2 minutes in untreated mice. Pretreatment with compounds that can counteract the effects of oxygen deprivation prolong (double or more) the survival time of mice subjected to this treatment. The increase in survival time is a measure of the potency of the compounds in counteracting anoxic damage in vivo.
Hypobaric Anoxia was used as a system for testing the neuroprotective effects of test compounds, HU-270 and HU-271. The experimental paradigm was derived from that described by Gotti and Depoortere, Congres de Circ. Cerebrale, Toulouse, 105-107 (1979). Briefly, mice in groups of 5 were placed in a chamber which was equilibrated at an atmospheric pressure of 200 mmHg (by evacuation via a vacuum pump). The mice were observed until they stopped breathing and the time was recorded for each mouse. The test compounds were administered 45 min before introducing the animals into the chamber. In all cases the experiment was performed in a masked vehicle controlled study to avoid bias on the part of the observer. Each mouse received the drug dissolved in MCT oil intraperitoneally at a dose of 5 mg/kg, or the vehicle alone (MCT oil, 5 ml/kg).

Row | SMILES | selectivity NMDA over AMPA/kainate receptors (Rat brain NMDA receptors) | % inhibition of NMDA (Rat brain NMDA receptors; 1 μM) [%] | % inhibition of NMDA (Rat brain NMDA receptors; 10 μM) [%] | mode of NMDA antagonism (Rat brain NMDA receptors; Lineweaver-Burke analysis) | concentration at which inhibitory activity was first apparent (Rat brain NMDA receptors; NMDA response) [nM] | histopathological damage / survival of hippocampal cells [1] | survival of mice exposed to hypobaric anoxia (hypobaric anoxia in mice)
1 | CCCCCCC(C)(C)c1cc(OC(C)=O)c([C@H]2C=C(C(=O)O)[C@H]3C[C@@H]2C3(C)C)c(OC(C)=O)c1 [(+)-4-[4-DMH-2,6 diacetoxyphenyl]-2-carboxy-6,6-dimethylbicyclo[3.1.1]hept-2-en] | selective for the NMDA over AMPA/kainate receptors | 35 | 41 | non-competitive NMDA antagonists | 10 | significantly decreased compared to control groups | –
2 | CCCCCCC(C)(C)c1cc(OC(C)=O)c([C@H]2C=C(C(=O)N(CC)CC)[C@H]3C[C@@H]2C3(C)C)c(OC(C)=O)c1 [HU-270] | – | 20 | – | – | – | increased survival of hippocampal cells | increased survival; also recorded: statistically significant increase of survival time
3 | CCCCCCC(C)(C)c1cc(OC(C)=O)c([C@H]2C=C(C(=O)NCCO)[C@H]3C[C@@H]2C3(C)C)c(OC(C)=O)c1 [HU-271] | – | 16 | 20 | – | – | increased survival of hippocampal cells | increased survival; also recorded: statistically significant increase of survival time
